13 compounds from patent US20220389061A1, “IMMUNOMODULATORS” (priority 2019, published 2022) can be followed below.

In this assay the target is T1, PD-1/PD-L1 (Homo sapiens, UniProt Q9NZQ7).
T1 construct: TVMV protease site linker (C); made in house; host or cells: HEK293T cells
The assay can be described thus: PD-1/PD-L1 Homogenous Time-Resolved Fluorescence (HTRF) binding assay. Put shortly: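 Compounds preincubated 15 min with PD-L1-His (10 nM final), then PD-1-Ig (20 nM final) added for 15 min in dPBS with 0.1% BSA, 0.05% Tween-20. Detection by Eu-cryptate anti-Ig (1 nM) and APC anti-His (20 nM) HTRF.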

[1] abbreviates: PD-L1-His 10 nM pre-incubated with inhibitor, PD-1-Ig 20 nM, read-out: HTRF IC50.

Read-outs that look alike come from different tables or passages of the source. Starred links: 1 amine or outer side, 2 acyl side, 3 side chain; linkers in the order of their positions; H or OH if unused. Positions of bridges follow the written chain, without caps; N, C: chain ends. Non-standard residues stand in square brackets, D forms with d. Residues, ends and D or L forms follow the SMILES beside them. Groups on a side chain read outwards from the residue. *: point of attachment. Trp(1-CH2COOH) = N[C@@H](Cc1cn(CC(=O)O)c2ccccc12)C(=O)O; NH(2-Cl-4-NO2-phenyl) = O=[N+]([O-])c1ccc(N*)c(Cl)c1; Benzoyl(2-(4-MeOPh)) = COc1ccc(-c2ccccc2C(=O)*)cc1; X23 = COc1cc(NC(=S)*)ccc1-n1cnc(Cl)c1; X24 = COc1cc(NC(=S)*)ccc1-n1cnc(C)n1; X49 = N#Cc1ccccc1NC(=N)c1ccccc1N*; Hyp = O=C(O)[C@@H]1C[C@@H](O)CN1; X80 = S=C(Nc1ccc(-n2cccn2)cc1)*; X94 = S=C(Nc1ccc(N2CCOCC2)nc1)*; X55 = COc1cc(NC(=S)*)cc(OC)c1; NMeNle = CCCC[C@H](NC)C(=O)O; X6 = CCCCCCCOc1ccc(N*)cc1; NMeA = CN[C@@H](C)C(=O)O; Dab = NCC[C@H](N)C(=O)O; Dap = NC[C@H](N)C(=O)O; CO = O=C([*:1])[*:2]

T1 sequence (Q9NZQ7 18-239): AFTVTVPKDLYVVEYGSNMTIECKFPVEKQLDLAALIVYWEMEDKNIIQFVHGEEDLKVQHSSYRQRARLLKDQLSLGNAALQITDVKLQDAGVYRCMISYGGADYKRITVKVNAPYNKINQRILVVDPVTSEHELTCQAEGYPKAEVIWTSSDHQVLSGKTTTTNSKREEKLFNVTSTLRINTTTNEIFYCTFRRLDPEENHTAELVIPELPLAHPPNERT

As to `CCCC[C@H]1C(=O)N(C)[C@@H](CCCC)C(=O)N[C@@H](CC(C)C)C(=O)N[C@H](C(=O)NCC(N)=O)CSCC(=O)N[C@@H](Cc2ccc(O)cc2)C(=O)N(C)[C@@H](C)C(=O)N[C@@H](CC(N)=O)C(=O)N2CCC[C@H]2C(=O)N[C@@H](CNC(=S)Nc2cc(OC)cc(OC)c2)C(=O)N[C@@H](CC(C)C)C(=O)N2C[C@H](O)C[C@H]2C(=O)N[C@@H](Cc2c[nH]c3ccccc23)C(=O)N[C@@H](CCNC(=S)Nc2cc(OC)cc(OC)c2)C(=O)N[C@@H](Cc2cn(CC(=O)O)c3ccccc23)C(=O)N1C` [Example 1086] ({CH2CO}-Y[NMeA]NP[Dap](X55)L[Hyp]W[Dab](X55)[Trp(1-CH2COOH)][NMeNle][NMeNle]LCG-NH2; thioether N-14), under setting [1], the IC50 (in general, the concentration that inhibits the measured activity by half) turned out to be 4.2 nM.
With `CCCC[C@H]1C(=O)N(C)[C@@H](CCCC)C(=O)N[C@@H](CC(C)C)C(=O)N[C@H](C(=O)NCC(N)=O)CSCC(=O)N[C@@H](Cc2ccc(O)cc2)C(=O)N(C)[C@@H](C)C(=O)N[C@@H](CC(N)=O)C(=O)N2CCC[C@H]2C(=O)N[C@@H](CNC(=O)Nc2ccccc2C(=N)Nc2ccccc2C#N)C(=O)N[C@@H](CC(C)C)C(=O)N2C[C@H](O)C[C@H]2C(=O)N[C@@H](Cc2c[nH]c3ccccc23)C(=O)N[C@@H](CCNC(=O)Nc2ccccc2C(=N)Nc2ccccc2C#N)C(=O)N[C@@H](Cc2cn(CC(=O)O)c3ccccc23)C(=O)N1C` [Example 1087] ({CH2CO}-Y[NMeA]NP[Dap]([CO-X49])L[Hyp]W[Dab]([CO-X49])[Trp(1-CH2COOH)][NMeNle][NMeNle]LCG-NH2; thioether N-14), the IC50 under setting [1] worked out at 2.6 nM.
The same measure, in the same setting: the same measure for `CCCC[C@H]1C(=O)N(C)[C@@H](CCCC)C(=O)N[C@@H](CC(C)C)C(=O)N[C@H](C(=O)NCC(N)=O)CSCC(=O)N[C@@H](Cc2ccc(O)cc2)C(=O)N(C)[C@@H](C)C(=O)N[C@@H](CC(N)=O)C(=O)N2CCC[C@H]2C(=O)N[C@@H](CNC(=O)Nc2ccccc2C(=N)Nc2ccccc2C#N)C(=O)N[C@@H](CC(C)C)C(=O)N2C[C@H](O)C[C@H]2C(=O)N[C@@H](Cc2c[nH]c3ccccc23)C(=O)N[C@@H](CCNC(=S)Nc2cc(OC)cc(OC)c2)C(=O)N[C@@H](Cc2cn(CC(=O)O)c3ccccc23)C(=O)N1C` [Example 1088] ({CH2CO}-Y[NMeA]NP[Dap]([CO-X49])L[Hyp]W[Dab](X55)[Trp(1-CH2COOH)][NMeNle][NMeNle]LCG-NH2; thioether N-14): 2.9 nM; for `CCCCCCCOc1ccc(NC(=O)NC[C@@H]2NC(=O)[C@@H]3CCCN3C(=O)[C@H](CC(N)=O)NC(=O)[C@H](C)N(C)C(=O)[C@H](Cc3ccc(O)cc3)NC(=O)CSC[C@@H](C(=O)NCC(N)=O)NC(=O)[C@H](CC(C)C)NC(=O)[C@H](CCCC)N(C)C(=O)[C@H](CCCC)N(C)C(=O)[C@H](Cc3cn(CC(=O)O)c4ccccc34)NC(=O)[C@H](CCN)NC(=O)[C@H](Cc3c[nH]c4ccccc34)NC(=O)[C@@H]3C[C@@H](O)CN3C(=O)[C@H](CC(C)C)NC2=O)cc1` [Example 1089] ({CH2CO}-Y[NMeA]NP[Dap]([CO-X6])L[Hyp]W[Dab][Trp(1-CH2COOH)][NMeNle][NMeNle]LCG-NH2; thioether N-14): 12 nM; for `CCCCCCCOc1ccc(NC(=O)NCC[C@@H]2NC(=O)[C@H](Cc3c[nH]c4ccccc34)NC(=O)[C@@H]3C[C@@H](O)CN3C(=O)[C@H](CC(C)C)NC(=O)[C@H](CNC(=O)Nc3ccc(OCCCCCCC)cc3)NC(=O)[C@@H]3CCCN3C(=O)[C@H](CC(N)=O)NC(=O)[C@H](C)N(C)C(=O)[C@H](Cc3ccc(O)cc3)NC(=O)CSC[C@@H](C(=O)NCC(N)=O)NC(=O)[C@H](CC(C)C)NC(=O)[C@H](CCCC)N(C)C(=O)[C@H](CCCC)N(C)C(=O)[C@H](Cc3cn(CC(=O)O)c4ccccc34)NC2=O)cc1` [Example 1090] ({CH2CO}-Y[NMeA]NP[Dap]([CO-X6])L[Hyp]W[Dab]([CO-X6])[Trp(1-CH2COOH)][NMeNle][NMeNle]LCG-NH2; thioether N-14): 242 nM.
As for `CCCC[C@H]1C(=O)N(C)[C@@H](CCCC)C(=O)N[C@@H](CC(C)C)C(=O)N[C@H](C(=O)NCC(N)=O)CSCC(=O)N[C@@H](Cc2ccc(O)cc2)C(=O)N(C)[C@@H](C)C(=O)N[C@@H](CC(N)=O)C(=O)N2CCC[C@H]2C(=O)N[C@@H](CNC(=S)Nc2ccc(-n3cnc(Cl)c3)c(OC)c2)C(=O)N[C@@H](CC(C)C)C(=O)N2C[C@H](O)C[C@H]2C(=O)N[C@@H](Cc2c[nH]c3ccccc23)C(=O)N[C@@H](CCNC(=S)Nc2ccc(-n3cnc(Cl)c3)c(OC)c2)C(=O)N[C@@H](Cc2cn(CC(=O)O)c3ccccc23)C(=O)N1C` [Example 1091] ({CH2CO}-Y[NMeA]NP[Dap](X23)L[Hyp]W[Dab](X23)[Trp(1-CH2COOH)][NMeNle][NMeNle]LCG-NH2; thioether N-14), the IC50 under setting [1] was 4.3 nM.
On the same count and under the same terms, the same measure for `CCCC[C@H]1C(=O)N(C)[C@@H](CCCC)C(=O)N[C@@H](CC(C)C)C(=O)N[C@H](C(=O)NCC(N)=O)CSCC(=O)N[C@@H](Cc2ccc(O)cc2)C(=O)N(C)[C@@H](C)C(=O)N[C@@H](CC(N)=O)C(=O)N2CCC[C@H]2C(=O)N[C@@H](CNC(=S)Nc2ccc(-n3cnc(C)n3)c(OC)c2)C(=O)N[C@@H](CC(C)C)C(=O)N2C[C@H](O)C[C@H]2C(=O)N[C@@H](Cc2c[nH]c3ccccc23)C(=O)N[C@@H](CCNC(=S)Nc2ccc(-n3cnc(C)n3)c(OC)c2)C(=O)N[C@@H](Cc2cn(CC(=O)O)c3ccccc23)C(=O)N1C` [Example 1092] ({CH2CO}-Y[NMeA]NP[Dap](X24)L[Hyp]W[Dab](X24)[Trp(1-CH2COOH)][NMeNle][NMeNle]LCG-NH2; thioether N-14): 3.4 nM; for `CCCC[C@H]1C(=O)N(C)[C@@H](CCCC)C(=O)N[C@@H](CC(C)C)C(=O)N[C@H](C(=O)NCC(N)=O)CSCC(=O)N[C@@H](Cc2ccc(O)cc2)C(=O)N(C)[C@@H](C)C(=O)N[C@@H](CC(N)=O)C(=O)N2CCC[C@H]2C(=O)N[C@@H](CNC(=S)Nc2ccc(N3CCOCC3)nc2)C(=O)N[C@@H](CC(C)C)C(=O)N2C[C@H](O)C[C@H]2C(=O)N[C@@H](Cc2c[nH]c3ccccc23)C(=O)N[C@@H](CCNC(=S)Nc2ccc(N3CCOCC3)nc2)C(=O)N[C@@H](Cc2cn(CC(=O)O)c3ccccc23)C(=O)N1C` [Example 1093] ({CH2CO}-Y[NMeA]NP[Dap](X94)L[Hyp]W[Dab](X94)[Trp(1-CH2COOH)][NMeNle][NMeNle]LCG-NH2; thioether N-14): 3.3 nM; for `CCCC[C@H]1C(=O)N(C)[C@@H](CCCC)C(=O)N[C@@H](CC(C)C)C(=O)N[C@H](C(=O)NCC(N)=O)CSCC(=O)N[C@@H](Cc2ccc(O)cc2)C(=O)N(C)[C@@H](C)C(=O)N[C@@H](CC(N)=O)C(=O)N2CCC[C@H]2C(=O)N[C@@H](CNC(=S)Nc2ccc(-n3cccn3)cc2)C(=O)N[C@@H](CC(C)C)C(=O)N2C[C@H](O)C[C@H]2C(=O)N[C@@H](Cc2c[nH]c3ccccc23)C(=O)N[C@@H](CCNC(=S)Nc2ccc(-n3cccn3)cc2)C(=O)N[C@@H](Cc2cn(CC(=O)O)c3ccccc23)C(=O)N1C` [Example 1094] ({CH2CO}-Y[NMeA]NP[Dap](X80)L[Hyp]W[Dab](X80)[Trp(1-CH2COOH)][NMeNle][NMeNle]LCG-NH2; thioether N-14): 2.4 nM.
The same measure, in the same setting: for `CCCC[C@H]1C(=O)N(C)[C@@H](CCCC)C(=O)N[C@@H](CC(C)C)C(=O)N[C@H](C(=O)NCC(N)=O)CSCC(=O)N[C@@H](Cc2ccc(O)cc2)C(=O)N(C)[C@@H](C)C(=O)N[C@@H](CC(N)=O)C(=O)N2CCC[C@H]2C(=O)N[C@@H](CNC(=O)c2ccccc2-c2ccc(OC)cc2)C(=O)N[C@@H](CC(C)C)C(=O)N2C[C@H](O)C[C@H]2C(=O)N[C@@H](Cc2c[nH]c3ccccc23)C(=O)N[C@@H](CCNC(=O)c2ccccc2-c2ccc(OC)cc2)C(=O)N[C@@H](Cc2cn(CC(=O)O)c3ccccc23)C(=O)N1C` [Example 1095] ({CH2CO}-Y[NMeA]NP[Dap](Benzoyl(2-(4-MeOPh)))L[Hyp]W[Dab](Benzoyl(2-(4-MeOPh)))[Trp(1-CH2COOH)][NMeNle][NMeNle]LCG-NH2; thioether N-14) the value was 5.7 nM.
`CCCC[C@H]1C(=O)N(C)[C@@H](CCCC)C(=O)N[C@@H](CC(C)C)C(=O)N[C@H](C(=O)NCC(N)=O)CSCC(=O)N[C@@H](Cc2ccc(O)cc2)C(=O)N(C)[C@@H](C)C(=O)N[C@@H](CC(N)=O)C(=O)N2CCC[C@H]2C(=O)N[C@@H](CNC(=O)Nc2ccc([N+](=O)[O-])cc2Cl)C(=O)N[C@@H](CC(C)C)C(=O)N2C[C@H](O)C[C@H]2C(=O)N[C@@H](Cc2c[nH]c3ccccc23)C(=O)N[C@@H](CCNC(=O)Nc2ccc([N+](=O)[O-])cc2Cl)C(=O)N[C@@H](Cc2cn(CC(=O)O)c3ccccc23)C(=O)N1C` [Example 1096] ({CH2CO}-Y[NMeA]NP[Dap]([CO-NH(2-Cl-4-NO2-phenyl)])L[Hyp]W[Dab]([CO-NH(2-Cl-4-NO2-phenyl)])[Trp(1-CH2COOH)][NMeNle][NMeNle]LCG-NH2; thioether N-14) showed an IC50 of 6.9 nM.
As to `CCCC[C@H]1C(=O)N(C)[C@@H](CCCC)C(=O)N[C@@H](CC(C)C)C(=O)N[C@H](C(=O)NCC(N)=O)CSCC(=O)N[C@@H](Cc2ccc(O)cc2)C(=O)N(C)[C@@H](C)C(=O)N[C@@H](CC(N)=O)C(=O)N2CCC[C@H]2C(=O)N[C@@H](CNC(=O)Nc2ccccc2C(=N)Nc2ccccc2C#N)C(=O)N[C@@H](CC(C)C)C(=O)N2C[C@H](O)C[C@H]2C(=O)N[C@@H](Cc2c[nH]c3ccccc23)C(=O)N[C@@H](CCN)C(=O)N[C@@H](Cc2cn(CC(=O)O)c3ccccc23)C(=O)N1C` [Example 1097] ({CH2CO}-Y[NMeA]NP[Dap]([CO-X49])L[Hyp]W[Dab][Trp(1-CH2COOH)][NMeNle][NMeNle]LCG-NH2; thioether N-14), the IC50 under setting [1] came out at 5.7 nM.
For `CCCC[C@H]1C(=O)N(C)[C@@H](CCCC)C(=O)N[C@@H](CC(C)C)C(=O)N[C@H](C(=O)NCC(N)=O)CSCC(=O)N[C@@H](Cc2ccc(O)cc2)C(=O)N(C)[C@@H](C)C(=O)N[C@@H](CC(N)=O)C(=O)N2CCC[C@H]2C(=O)N[C@@H](CNC(=S)Nc2cc(OC)cc(OC)c2)C(=O)N[C@@H](CC(C)C)C(=O)N2C[C@H](O)C[C@H]2C(=O)N[C@@H](Cc2c[nH]c3ccccc23)C(=O)N[C@@H](CCN)C(=O)N[C@@H](Cc2cn(CC(=O)O)c3ccccc23)C(=O)N1C` [Example 1098] ({CH2CO}-Y[NMeA]NP[Dap](X55)L[Hyp]W[Dab][Trp(1-CH2COOH)][NMeNle][NMeNle]LCG-NH2; thioether N-14), the IC50 under setting [1] stood at 3.1 nM.
